Patent publication US11058668B2 (EIDOS THERAPEUTICS, INC., priority 2018, dated 2021)
Like-named read-outs stand apart in the source and are kept apart here.

Legend:
[1] = Phase 1 (AG10-001) single ascending dose pharmacokinetics; format: in vivo, human; conditions: for Cmax / Tmax / concentration at 24 hr / AUC(0-t) / AUC(0-inf) / half-life: human, plasma; for concentration at 24 hr: read-out: C24
Experimental: Quantitation was performed using a weighted 1/x^2 linear least squares regression analysis generated from calibration standards prepared on the day of extraction.
One of the SAD cohorts received two 300 mg doses, one under fasted conditions and the other following a high fat test meal after an appropriate washout period.

[2] = Phase 1 (AG10-001) multiple ascending dose pharmacokinetics; format: in vivo, human; conditions: for Cmax / Tmax / AUC(0-t): human, plasma, oral, geometric mean; for AUC(0-t): read-out: AUC0-12
Experimental: Quantitation was performed using a weighted 1/x^2 linear least squares regression analysis generated from calibration standards prepared on the day of extraction. […]

tetrameric TTR = tetrameric TTR (Homo sapiens, UniProt P02766); assay: Western blot for stabilization of tetrameric TTR, Phase 1 subjects; format: in vivo; design: from tissue; host or cells: serum / blood plasma of dosed healthy human volunteers; conditions: 800 mg AG10 HCl q12h, day 12 predose (trough) and post dose (peak); 72h acidification
Experimental: Blood plasma samples from the subject are diluted with acidification buffer (sodium acetate, KCl, EDTA, DTT, pH about 4.0) for both the 0 and 72 hour time point. Time 0 hr samples are directly cross-linked with glutaraldehyde, and then quenched. 72 hr samples are incubated at room temperature for 72 hr and then cross-linked and quenched by the same protocol. All samples are then denatured by adding SDS gel loading buffer and boiled prior to gel loading. Each sample is separated in SDS-PAGE gels and analyzed by immunoblotting using anti-TTR antiserum (Polyclonal Rabbit Anti-Human Prealbumin. DAKO Cat# A0002). The density of all TTR bands are quantified using infrared LICOR imaging system or Fluorescence Imaging system and reported. Normalization by IgG band using LICOR 925-32232 or Invitrogen 84546.

[3] = molecular target: human serum albumin (HSA) (Homo sapiens, UniProt P02768); assay: Gel filtration and dialysis binding to human serum albumin; design: albumin from human serum; Sigma Aldrich, catalog no.: A3782; purchased Sigma Aldrich A3782; host or cells: human serum; conditions: 30 μM compound, 600 μM albumin
Chain of human serum albumin (HSA) (P02768 25-609): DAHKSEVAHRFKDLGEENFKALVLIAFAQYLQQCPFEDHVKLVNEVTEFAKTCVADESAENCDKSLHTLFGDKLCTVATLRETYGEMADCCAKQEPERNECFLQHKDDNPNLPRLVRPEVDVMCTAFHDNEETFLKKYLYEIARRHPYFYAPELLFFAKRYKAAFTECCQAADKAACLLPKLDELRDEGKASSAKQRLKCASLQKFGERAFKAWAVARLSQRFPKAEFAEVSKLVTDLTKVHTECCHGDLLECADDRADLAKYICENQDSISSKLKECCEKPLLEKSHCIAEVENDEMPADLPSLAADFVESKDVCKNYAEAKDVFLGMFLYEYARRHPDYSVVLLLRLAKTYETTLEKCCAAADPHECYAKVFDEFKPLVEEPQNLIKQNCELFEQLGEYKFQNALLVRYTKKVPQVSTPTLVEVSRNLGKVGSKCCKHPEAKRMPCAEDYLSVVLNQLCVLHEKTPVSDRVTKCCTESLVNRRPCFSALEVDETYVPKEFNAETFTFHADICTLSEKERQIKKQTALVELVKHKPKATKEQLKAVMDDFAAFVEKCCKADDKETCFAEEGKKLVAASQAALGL
Experimental: The concentration of HSA (i.e. concentration at time zero) was also determined using NanoDrop™ (based on calibration curves of known HAS concentrations). […] The concentration of test compounds in these fractions (i.e. conc. at time zero) was evaluated using HPLC (based on calibration curves of known concentration of test compounds). 500 μL of each HSA/test compound samples was then added to a Slide-A-Lyzer Dialysis Cassette G2 (3.5K MWCO, Thermo Scientific, catalog no. P187722). The dialysis Cassettes were placed in 100 ml of assay buffer and stirred at room temperature. After 24 hr, the samples were removed from dialysis cassette and the volume was measured. The concentration of HAS and test compounds were determined using NanoDrop™ and HPLC as described above.

[4] = both sexes, oral, 300 mg, SAD Cohort 3, 300 mg, Fasted, geometric mean
[5] = both sexes, oral, 300 mg, SAD Cohort 3, 300 mg, Fed (high fat test meal), geometric mean
[6] = both sexes, po, 50 mg, single oral dose 50 mg AG10 HCl, healthy subjects, geometric mean ± SD
[7] = both sexes, po, 150 mg, single oral dose 150 mg AG10 HCl, healthy subjects, geometric mean ± SD
[8] = both sexes, po, 300 mg, single oral dose 300 mg AG10 HCl, healthy subjects, geometric mean ± SD
[9] = both sexes, po, 800 mg, single oral dose 800 mg AG10 HCl, healthy subjects, geometric mean ± SD

Cc1n[nH]c(C)c1CCCOc1cc(C(=O)O)ccc1F [AG10, 3-(3-(3,5-dimethyl-1H-pyrazol-4-yl)propoxy)-4-fluorobenzoic acid]
food effect on the pharmacokinetics ([1]; 300 mg, fed versus fasted state): minimal food effect | mean Tmax ([1]; SAD cohorts 1-4, 50-800 mg AG10 HCl oral): under one | Cmax [1, 4]: 15.1 µM | Tmax [1, 4]: 42.4 min | concentration at 24 hr [1, 4]: 2.19 µM | Cmax [1, 5]: 10.2 µM | Tmax [1, 5]: 95.4 min | AUC(0-t) ([1]; both sexes, oral, 300 mg, SAD Cohort 3, 300 mg, Fed (high fat test meal), geometric mean, read-out: AUC0-24): 111 µM·h | concentration at 24 hr [1, 5]: 2.69 µM | AUC(0-inf) ([1]; both sexes, po, 50 mg): 97.1 ± 12.1 µM·h | Cmax [1, 6]: 7.2 ± 0.72 µM | Tmax [1, 6]: 53.5 ± 44.2 min | AUC(0-t) ([1]; both sexes, po, 50 mg, single oral dose 50 mg AG10 HCl, healthy subjects, geometric mean ± SD, read-out: AUC0-24): 58.9 ± 4.09 µM·h | AUC(0-t) ([1]; both sexes, po, 50 mg, single oral dose 50 mg AG10 HCl, healthy subjects, geometric mean ± SD, read-out: AUClast): 95 ± 11.8 µM·h | concentration at 24 hr [1, 6]: 1.05 ± 0.13 µM | half-life ([1]; both sexes, po, 50 mg, read-out: T1/2 (converted)): 1500 ± 175 min | AUC(0-inf) ([1]; both sexes, po, 150 mg): 168 ± 46.8 µM·h | Cmax [1, 7]: 11.3 ± 4.76 µM | Tmax [1, 7]: 50.9 ± 58.2 min | AUC(0-t) ([1]; both sexes, po, 150 mg, single oral dose 150 mg AG10 HCl, healthy subjects, geometric mean ± SD, read-out: AUC0-24): 93 ± 16.8 µM·h | AUC(0-t) ([1]; both sexes, po, 150 mg, single oral dose 150 mg AG10 HCl, healthy subjects, geometric mean ± SD, read-out: AUClast): 166 ± 46 µM·h | concentration at 24 hr [1, 7]: 1.78 ± 0.465 µM | half-life ([1]; both sexes, po, 150 mg, read-out: T1/2 (converted)): 1510 ± 215 min | AUC(0-inf) ([1]; both sexes, po, 300 mg): 191 ± 77 µM·h | Cmax [1, 8]: 15.1 ± 3.6 µM | Tmax [1, 8]: 42.4 ± 16.4 min | AUC(0-t) ([1]; both sexes, po, 300 mg, single oral dose 300 mg AG10 HCl, healthy subjects, geometric mean ± SD, read-out: AUC0-24): 100 ± 9.76 µM·h | AUC(0-t) ([1]; both sexes, po, 300 mg, single oral dose 300 mg AG10 HCl, healthy subjects, geometric mean ± SD, read-out: AUClast): 186 ± 73.8 µM·h | concentration at 24 hr [1, 8]: 2.19 ± 0.435 µM | half-life ([1]; both sexes, po, 300 mg, read-out: T1/2 (converted)): 1320 ± 356 min | AUC(0-inf) ([1]; both sexes, po, 800 mg): 414 ± 87.5 µM·h | Cmax [1, 9]: 37.8 ± 11.3 µM | Tmax [1, 9]: 47.6 ± 15.5 min | AUC(0-t) ([1]; both sexes, po, 800 mg, single oral dose 800 mg AG10 HCl, healthy subjects, geometric mean ± SD, read-out: AUC0-24): 176 ± 27.7 µM·h | AUC(0-t) ([1]; both sexes, po, 800 mg, single oral dose 800 mg AG10 HCl, healthy subjects, geometric mean ± SD, read-out: AUClast): 410 ± 81.7 µM·h | concentration at 24 hr [1, 9]: 4.51 ± 0.565 µM | half-life ([1]; both sexes, po, 800 mg, read-out: T1/2 (converted)): 1610 ± 509 min | half-life ([1]; both sexes, po, read-out: elimination half-life): 1320 to 1620 min | AUC(0-t) ([1]; oral, 300 mg, SAD Cohort 3, 300 mg, Fasted, geometric mean, read-out: AUC0-24): 99.6 µM·h | accumulation over 12 days of dosing ([2]; 100, 300, 800 mg every 12 hr for 12 days): No significant accumulation | Cmax ([2]; 100 mg, 100 mg q12 h, Day 1): 8.67 µM | Tmax ([2]; 100 mg, 100 mg q12 h, Day 1): 47.6 min | AUC(0-t) ([2]; 100 mg, 100 mg q12 h, Day 1): 46.3 µM·h | Cmax ([2]; 100 mg, 100 mg q12 h, Day 12): 12.1 µM | Tmax ([2]; 100 mg, 100 mg q12 h, Day 12): 33.7 min | AUC(0-t) ([2]; 100 mg, 100 mg q12 h, Day 12): 70.3 µM·h | Cmax ([2]; 300 mg, 300 mg q12 h, Day 1): 14.3 µM | Tmax ([2]; 300 mg, 300 mg q12 h, Day 1): 42.4 min | AUC(0-t) ([2]; 300 mg, 300 mg q12 h, Day 1): 65.2 µM·h | Cmax ([2]; 300 mg, 300 mg q12 h, Day 12): 23.5 µM | Tmax ([2]; 300 mg, 300 mg q12 h, Day 12): 33.7 min | AUC(0-t) ([2]; 300 mg, 300 mg q12 h, Day 12): 97.7 µM·h | Cmax ([2]; 800 mg, 800 mg q12 h, Day 1): 31.8 µM | Tmax ([2]; 800 mg, 800 mg q12 h, Day 1): 47.6 min | AUC(0-t) ([2]; 800 mg, 800 mg q12 h, Day 1): 120 µM·h | Cmax ([2]; 800 mg, 800 mg q12 h, Day 12): 42.5 µM | Tmax ([2]; 800 mg, 800 mg q12 h, Day 12): 53.5 min | AUC(0-t) ([2]; 800 mg, 800 mg q12 h, Day 12): 159 µM·h | stabilization of tetrameric TTR (Western blot) (tetrameric TTR): full stabilization of tetrameric TTR | concentration bound to HSA following dialysis vs buffer for 24 hr [3]: 7.8 ± 0.1 µM | concentration bound to albumin at time 0 (immediately after gel filtration) [3]: 18.3 ± 0.98 µM
